According to ChEMBL document CHEMBL5291721, “A preclinical secondary pharmacology resource illuminates target-adverse drug reaction associations of marketed drugs” (Nat Commun, 2023):

What was measured:
[1] = molecular target: T1, Alpha-1A adrenergic receptor (Homo sapiens, UniProt P35348)
T1 sequence (P35348 whole entry): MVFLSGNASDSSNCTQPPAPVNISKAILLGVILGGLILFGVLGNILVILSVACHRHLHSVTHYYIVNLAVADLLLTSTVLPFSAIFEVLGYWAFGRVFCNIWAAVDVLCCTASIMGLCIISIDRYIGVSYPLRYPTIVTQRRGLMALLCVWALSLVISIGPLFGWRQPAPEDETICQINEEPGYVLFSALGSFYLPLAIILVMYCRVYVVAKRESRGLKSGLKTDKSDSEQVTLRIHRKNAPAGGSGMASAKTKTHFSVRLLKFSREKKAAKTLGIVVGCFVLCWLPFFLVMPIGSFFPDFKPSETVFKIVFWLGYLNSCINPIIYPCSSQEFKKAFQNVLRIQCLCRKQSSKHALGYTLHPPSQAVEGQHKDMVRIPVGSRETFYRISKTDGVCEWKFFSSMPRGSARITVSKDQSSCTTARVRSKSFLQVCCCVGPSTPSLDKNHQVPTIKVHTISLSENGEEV

[2] = molecular target: Voltage-dependent L-type calcium channel subunit alpha-1C (Rattus norvegicus, UniProt P22002); assay type: functional
[3] = molecular target: T2, Muscarinic acetylcholine receptor M1 (Homo sapiens, UniProt P11229); assay type: functional
T2 sequence (P11229 whole entry): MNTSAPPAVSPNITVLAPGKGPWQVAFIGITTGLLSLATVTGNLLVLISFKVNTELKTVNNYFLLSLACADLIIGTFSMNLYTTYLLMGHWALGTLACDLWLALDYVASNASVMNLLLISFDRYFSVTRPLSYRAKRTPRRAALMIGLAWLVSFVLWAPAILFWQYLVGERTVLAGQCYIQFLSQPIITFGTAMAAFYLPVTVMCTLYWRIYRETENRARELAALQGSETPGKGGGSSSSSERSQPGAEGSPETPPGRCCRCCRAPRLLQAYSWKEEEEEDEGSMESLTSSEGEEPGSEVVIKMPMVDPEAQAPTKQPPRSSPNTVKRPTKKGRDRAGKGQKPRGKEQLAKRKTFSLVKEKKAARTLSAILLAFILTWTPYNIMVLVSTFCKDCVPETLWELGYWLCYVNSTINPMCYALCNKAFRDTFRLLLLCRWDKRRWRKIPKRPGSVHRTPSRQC

Cannabinoid receptor 1 = Cannabinoid receptor 1 (Homo sapiens, UniProt P21554); assay type: functional, cell-based
Estrogen receptor = molecular target: T3, Estrogen receptor (Homo sapiens, UniProt P03372)
T3 sequence (P03372 whole entry): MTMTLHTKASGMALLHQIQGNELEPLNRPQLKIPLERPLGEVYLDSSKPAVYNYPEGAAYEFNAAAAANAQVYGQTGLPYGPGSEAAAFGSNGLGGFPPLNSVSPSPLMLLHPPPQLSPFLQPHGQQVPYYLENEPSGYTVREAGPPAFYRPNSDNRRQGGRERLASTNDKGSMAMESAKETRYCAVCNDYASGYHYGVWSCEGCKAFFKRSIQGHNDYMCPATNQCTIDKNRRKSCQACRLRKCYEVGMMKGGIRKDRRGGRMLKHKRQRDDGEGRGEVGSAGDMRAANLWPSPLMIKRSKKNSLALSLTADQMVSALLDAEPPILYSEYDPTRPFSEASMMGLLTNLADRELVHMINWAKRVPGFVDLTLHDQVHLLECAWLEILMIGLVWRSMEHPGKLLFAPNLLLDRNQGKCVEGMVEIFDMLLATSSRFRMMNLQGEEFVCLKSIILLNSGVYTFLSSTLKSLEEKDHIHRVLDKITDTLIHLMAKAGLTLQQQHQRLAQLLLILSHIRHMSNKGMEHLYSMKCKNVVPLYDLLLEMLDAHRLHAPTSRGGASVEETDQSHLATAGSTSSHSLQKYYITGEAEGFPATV

[4] = molecular target: T4, Neuropeptide Y receptor type 1 (Homo sapiens, UniProt P25929)
T4 sequence (P25929 whole entry): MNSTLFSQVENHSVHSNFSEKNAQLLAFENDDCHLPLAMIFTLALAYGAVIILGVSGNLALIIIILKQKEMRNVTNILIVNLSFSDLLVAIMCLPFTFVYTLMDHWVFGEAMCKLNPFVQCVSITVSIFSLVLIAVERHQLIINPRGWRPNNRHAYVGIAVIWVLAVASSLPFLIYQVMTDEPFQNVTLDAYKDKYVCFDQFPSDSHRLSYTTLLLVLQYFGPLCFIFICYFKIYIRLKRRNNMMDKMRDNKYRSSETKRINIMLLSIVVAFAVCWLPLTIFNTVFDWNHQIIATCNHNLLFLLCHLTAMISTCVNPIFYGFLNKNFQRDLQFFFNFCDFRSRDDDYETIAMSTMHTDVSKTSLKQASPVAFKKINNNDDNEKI

Mu-type opioid receptor = Mu-type opioid receptor (Homo sapiens, UniProt P35372)
[5] = molecular target: 3',5'-cyclic-AMP phosphodiesterase 4A (Homo sapiens, UniProt P27815); assay type: functional
[6] = molecular target: T5, Alpha-2B adrenergic receptor (Homo sapiens, UniProt P18089)
T5 sequence (P18089 whole entry): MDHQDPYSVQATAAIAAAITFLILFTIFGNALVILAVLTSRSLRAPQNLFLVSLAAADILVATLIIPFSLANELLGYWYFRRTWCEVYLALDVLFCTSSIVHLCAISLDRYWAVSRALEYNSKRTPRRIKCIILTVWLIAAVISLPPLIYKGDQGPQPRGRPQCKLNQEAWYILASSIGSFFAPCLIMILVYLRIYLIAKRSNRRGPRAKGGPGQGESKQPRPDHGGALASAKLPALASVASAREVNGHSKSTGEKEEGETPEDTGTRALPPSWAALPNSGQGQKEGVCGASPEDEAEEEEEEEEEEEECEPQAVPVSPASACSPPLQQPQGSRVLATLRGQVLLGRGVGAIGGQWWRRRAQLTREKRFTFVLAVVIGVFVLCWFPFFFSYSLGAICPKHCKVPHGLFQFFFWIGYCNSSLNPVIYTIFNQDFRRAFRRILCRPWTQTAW
Also: assay procedure not described here.

3',5'-cyclic-AMP phosphodiesterase 4A, sequence (P27815 whole entry): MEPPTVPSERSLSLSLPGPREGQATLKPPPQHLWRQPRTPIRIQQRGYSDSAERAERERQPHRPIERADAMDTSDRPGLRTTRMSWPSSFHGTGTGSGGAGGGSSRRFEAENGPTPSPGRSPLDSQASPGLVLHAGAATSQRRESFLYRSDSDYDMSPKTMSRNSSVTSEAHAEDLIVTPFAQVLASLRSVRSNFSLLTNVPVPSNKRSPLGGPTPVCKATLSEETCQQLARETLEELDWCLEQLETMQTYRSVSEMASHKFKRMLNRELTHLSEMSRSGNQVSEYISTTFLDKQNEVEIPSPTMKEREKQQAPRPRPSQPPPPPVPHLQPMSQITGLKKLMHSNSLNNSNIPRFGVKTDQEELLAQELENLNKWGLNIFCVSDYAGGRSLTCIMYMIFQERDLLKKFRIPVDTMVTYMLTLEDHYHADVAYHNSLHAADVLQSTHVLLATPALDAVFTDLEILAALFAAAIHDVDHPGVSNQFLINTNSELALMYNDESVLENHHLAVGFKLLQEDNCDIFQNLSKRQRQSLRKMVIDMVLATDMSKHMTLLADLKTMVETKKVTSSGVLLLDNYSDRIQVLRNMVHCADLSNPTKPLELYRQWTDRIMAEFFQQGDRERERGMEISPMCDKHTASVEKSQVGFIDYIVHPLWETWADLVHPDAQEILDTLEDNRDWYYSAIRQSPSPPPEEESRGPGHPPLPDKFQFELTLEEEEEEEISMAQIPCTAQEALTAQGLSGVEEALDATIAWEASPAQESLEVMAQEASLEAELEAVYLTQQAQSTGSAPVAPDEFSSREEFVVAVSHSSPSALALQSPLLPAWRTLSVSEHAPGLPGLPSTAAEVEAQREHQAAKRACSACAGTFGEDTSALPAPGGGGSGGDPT
Cannabinoid receptor 1, sequence (P21554 whole entry): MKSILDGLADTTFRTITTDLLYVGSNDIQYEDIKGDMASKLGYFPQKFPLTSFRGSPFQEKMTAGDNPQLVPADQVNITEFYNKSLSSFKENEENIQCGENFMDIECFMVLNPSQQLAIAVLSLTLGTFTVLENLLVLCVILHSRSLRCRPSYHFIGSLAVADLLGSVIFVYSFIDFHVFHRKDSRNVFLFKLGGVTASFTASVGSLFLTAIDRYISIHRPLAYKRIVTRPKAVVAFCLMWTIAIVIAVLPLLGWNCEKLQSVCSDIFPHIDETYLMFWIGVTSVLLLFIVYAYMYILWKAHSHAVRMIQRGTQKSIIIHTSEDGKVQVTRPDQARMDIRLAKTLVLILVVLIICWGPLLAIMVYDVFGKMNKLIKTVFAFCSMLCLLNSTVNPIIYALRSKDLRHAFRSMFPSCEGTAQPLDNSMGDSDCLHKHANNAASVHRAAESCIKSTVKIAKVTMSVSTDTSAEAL
Mu-type opioid receptor, sequence (P35372 whole entry): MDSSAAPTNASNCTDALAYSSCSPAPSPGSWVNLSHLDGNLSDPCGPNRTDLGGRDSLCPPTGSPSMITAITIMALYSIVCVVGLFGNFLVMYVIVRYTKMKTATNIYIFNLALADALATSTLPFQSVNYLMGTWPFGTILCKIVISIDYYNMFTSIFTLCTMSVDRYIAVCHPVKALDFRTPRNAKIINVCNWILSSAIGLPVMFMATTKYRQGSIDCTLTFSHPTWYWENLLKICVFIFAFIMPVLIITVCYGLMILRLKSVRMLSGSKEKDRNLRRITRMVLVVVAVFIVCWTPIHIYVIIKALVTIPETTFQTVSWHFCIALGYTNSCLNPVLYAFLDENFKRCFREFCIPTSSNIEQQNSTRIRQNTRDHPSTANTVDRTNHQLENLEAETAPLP
Voltage-dependent L-type calcium channel subunit alpha-1C, sequence (P22002 whole entry): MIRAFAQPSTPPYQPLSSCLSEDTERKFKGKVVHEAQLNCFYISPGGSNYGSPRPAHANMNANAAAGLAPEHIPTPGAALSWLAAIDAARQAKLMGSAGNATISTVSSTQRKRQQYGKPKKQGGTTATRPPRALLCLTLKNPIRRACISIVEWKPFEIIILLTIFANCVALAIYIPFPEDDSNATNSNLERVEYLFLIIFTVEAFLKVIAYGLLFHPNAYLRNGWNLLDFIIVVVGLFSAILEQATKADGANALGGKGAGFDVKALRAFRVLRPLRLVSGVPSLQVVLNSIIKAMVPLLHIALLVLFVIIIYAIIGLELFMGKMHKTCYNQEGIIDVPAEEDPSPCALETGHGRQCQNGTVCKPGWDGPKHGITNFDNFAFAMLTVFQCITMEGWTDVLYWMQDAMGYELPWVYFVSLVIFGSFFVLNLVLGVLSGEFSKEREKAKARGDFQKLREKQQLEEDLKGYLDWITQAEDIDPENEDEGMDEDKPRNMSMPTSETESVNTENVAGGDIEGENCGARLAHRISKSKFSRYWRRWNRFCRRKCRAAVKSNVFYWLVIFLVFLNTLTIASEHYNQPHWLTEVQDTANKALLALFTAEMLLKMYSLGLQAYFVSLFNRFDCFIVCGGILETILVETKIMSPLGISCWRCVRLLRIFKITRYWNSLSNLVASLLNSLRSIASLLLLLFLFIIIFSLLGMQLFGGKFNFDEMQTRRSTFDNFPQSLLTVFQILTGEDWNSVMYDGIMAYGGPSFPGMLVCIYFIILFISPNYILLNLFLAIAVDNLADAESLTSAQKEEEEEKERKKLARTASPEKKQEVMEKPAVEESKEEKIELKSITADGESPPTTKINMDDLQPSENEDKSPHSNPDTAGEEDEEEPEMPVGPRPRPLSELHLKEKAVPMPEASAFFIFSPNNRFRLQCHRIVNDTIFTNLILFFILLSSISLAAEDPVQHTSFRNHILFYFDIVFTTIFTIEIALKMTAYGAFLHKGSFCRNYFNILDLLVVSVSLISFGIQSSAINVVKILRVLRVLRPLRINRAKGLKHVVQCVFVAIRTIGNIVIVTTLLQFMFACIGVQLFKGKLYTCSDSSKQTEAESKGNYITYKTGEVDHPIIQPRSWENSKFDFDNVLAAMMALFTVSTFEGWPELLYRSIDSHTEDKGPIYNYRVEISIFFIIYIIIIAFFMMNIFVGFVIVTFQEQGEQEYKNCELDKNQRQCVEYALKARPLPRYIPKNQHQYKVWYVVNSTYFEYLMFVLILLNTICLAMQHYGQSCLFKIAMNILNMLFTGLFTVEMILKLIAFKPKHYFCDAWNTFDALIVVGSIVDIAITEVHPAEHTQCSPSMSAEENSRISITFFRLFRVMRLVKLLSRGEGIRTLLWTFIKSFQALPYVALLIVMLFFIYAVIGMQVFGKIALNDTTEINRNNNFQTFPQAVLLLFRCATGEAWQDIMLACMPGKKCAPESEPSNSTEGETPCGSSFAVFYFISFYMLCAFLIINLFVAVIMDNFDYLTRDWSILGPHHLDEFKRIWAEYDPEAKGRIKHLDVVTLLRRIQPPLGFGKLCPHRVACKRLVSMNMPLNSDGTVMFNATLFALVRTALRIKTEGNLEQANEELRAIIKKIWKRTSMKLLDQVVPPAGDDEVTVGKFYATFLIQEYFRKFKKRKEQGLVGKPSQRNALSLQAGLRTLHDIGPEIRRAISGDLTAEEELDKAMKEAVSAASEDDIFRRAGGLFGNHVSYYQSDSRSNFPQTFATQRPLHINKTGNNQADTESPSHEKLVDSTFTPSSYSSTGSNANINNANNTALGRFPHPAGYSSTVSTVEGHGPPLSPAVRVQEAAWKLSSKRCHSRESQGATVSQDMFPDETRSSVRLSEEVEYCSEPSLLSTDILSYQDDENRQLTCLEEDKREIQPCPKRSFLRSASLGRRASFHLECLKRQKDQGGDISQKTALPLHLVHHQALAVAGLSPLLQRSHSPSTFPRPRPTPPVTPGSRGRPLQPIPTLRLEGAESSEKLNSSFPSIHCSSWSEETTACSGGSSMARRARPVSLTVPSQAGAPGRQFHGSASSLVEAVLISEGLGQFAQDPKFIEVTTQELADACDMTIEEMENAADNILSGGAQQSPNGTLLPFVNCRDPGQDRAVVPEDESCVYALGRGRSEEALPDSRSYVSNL

| SMILES | AC50 [1] | AC50 [2] | AC50 [3] | AC50 (Cannabinoid receptor 1) | AC50 (Estrogen receptor) | AC50 [4] | AC50 (Mu-type opioid receptor) | AC50 [5] | AC50 [6] |
| --- | --- | --- | --- | --- | --- | --- | --- | --- | --- |
| CO/N=C(\C(=O)N[C@@H]1C(=O)N2C(C(=O)[O-])=C(C[N+]3(C)CCCC3)CS[C@H]12)c1csc(N)n1 | > 30 µM | > 30 µM | > 300 µM | > 300 µM | > 30 µM | > 30 µM |  |  |  |
| CCOC(=O)[C@H](CCc1ccccc1)N[C@@H](C)C(=O)N1CCC[C@H]1C(=O)O | > 10 µM | > 10 µM |  | > 30 µM |  | > 30 µM |  |  |  |
| Nc1nc(N)c2nc(-c3ccccc3)c(N)nc2n1 | > 10 µM | > 30 µM |  | > 30 µM | > 30 µM | > 30 µM | 29.1 µM | 20.8 µM |  |
| C[C@H]1O[C@H](O[C@H]2[C@H](O)[C@@H](O)[C@@H](O[C@H]3[C@H](O)[C@@H](O)C(O)O[C@@H]3CO)O[C@@H]2CO)[C@H](O)[C@@H](O)[C@@H]1N[C@H]1C=C(CO)[C@@H](O)[C@H](O)[C@H]1O (some centres undefined) [ACARBOSE] | > 10 µM | > 10 µM |  | 30 µM |  | > 30 µM | > 30 µM | 5.08 µM |  |
| Oc1ncnc2[nH]ncc12 [ALLOPURINOL] | 2.88 µM | > 10 µM |  | > 30 µM | > 30 µM | > 30 µM | > 30 µM | > 30 µM |  |
| CC(N)Cc1ccccc1 (centres undefined) [AMPHETAMINE] | > 10 µM | > 10 µM | > 30 µM | > 30 µM | > 30 µM | > 30 µM |  |  |  |
| CCC[C@@H]1C[C@@H](C(=O)N[C@@H]([C@H]2O[C@H](SC)[C@H](O)[C@@H](O)[C@H]2O)[C@H](C)Cl)N(C)C1 [CLINDAMYCIN] | 3.42 µM | > 10 µM |  | > 30 µM | > 30 µM | > 30 µM |  |  |  |
| CN(C)CCCN1c2ccccc2CCc2ccc(Cl)cc21 [CLOMIPRAMINE] | 0.0445 µM | > 10 µM |  |  |  |  | 1.9 µM |  |  |
| O=C(O)c1cc(-c2ccc(F)cc2F)ccc1O [DIFLUNISAL] | > 30 µM | > 10 µM |  |  | > 10 µM | > 10 µM |  |  |  |
| C#C[C@]1(O)CC[C@H]2[C@@H]3CCc4cc(O)ccc4[C@H]3CC[C@@]21C [ETHINYL ESTRADIOL] | > 10 µM | > 10 µM |  |  |  | > 30 µM | 20.6 µM | 20.1 µM |  |
| NC(N)=Nc1nc(CSCCC(N)=NS(N)(=O)=O)cs1 [FAMOTIDINE] | > 10 µM | > 10 µM |  | > 30 µM | > 30 µM | > 30 µM |  |  |  |
| CC(C)C(=O)Nc1ccc([N+](=O)[O-])c(C(F)(F)F)c1 [FLUTAMIDE] | > 30 µM | > 10 µM |  |  | > 10 µM | > 30 µM | > 30 µM | > 30 µM |  |
| C[C@@H]1O[C@@H]1P(=O)(O)O [FOSFOMYCIN] | > 10 µM | > 10 µM | > 10 µM |  |  | > 10 µM |  |  | > 10 µM |
| NS(=O)(=O)c1cc2c(cc1Cl)NCNS2(=O)=O [HYDROCHLOROTHIAZIDE] | > 10 µM | > 10 µM |  |  | > 30 µM | > 30 µM |  |  |  |
| NC[C@H]1O[C@H](O[C@H]2[C@H](O)[C@@H](O[C@H]3O[C@H](CO)[C@@H](O)[C@H](N)[C@H]3O)[C@H](N)C[C@@H]2N)[C@H](O)[C@@H](O)[C@@H]1O [KANAMYCIN] | > 30 µM | > 10 µM |  |  | > 10 µM | > 10 µM |  |  |  |
| C[C@H]1C[C@@H]2[C@H]([C@@H](O)C[C@@]3(C)[C@H]2CC[C@]3(O)C(=O)CO)[C@@]2(C)C=CC(=O)C=C12 [METHYLPREDNISOLONE] | > 30 µM | > 10 µM |  |  |  | > 10 µM |  |  |  |
| CCN(CC)CCNC(=O)c1cc(Cl)c(N)cc1OC [METOCLOPRAMIDE] | > 10 µM | > 10 µM |  | > 30 µM | > 30 µM | > 30 µM |  |  |  |
| CC(C)(C(=O)c1cccnc1)c1cccnc1 [METYRAPONE] | > 10 µM | > 10 µM |  |  | > 10 µM | > 10 µM |  |  |  |
| COC(=O)C1=C(C)NC(C)=C(C(=O)OCC(C)C)C1c1ccccc1[N+](=O)[O-] (centres undefined) [NISOLDIPINE] | 16 µM | 4.62 µM |  | 12 µM | > 30 µM | > 10 µM |  |  |  |
| NC1=NC(=O)C(c2ccccc2)O1 (centres undefined) [PEMOLINE] | > 10 µM | > 10 µM |  |  |  | > 30 µM |  |  |  |
| CCc1ccc(CCOc2ccc(CC3SC(=O)NC3=O)cc2)nc1 (centres undefined) [PIOGLITAZONE] | > 10 µM | > 10 µM |  |  | > 30 µM | > 30 µM | > 30 µM | > 10 µM |  |
| CC[C@H](C)C(=O)O[C@H]1C[C@H](O)C=C2C=C[C@H](C)[C@H](CC[C@@H](O)C[C@@H](O)CC(=O)O)[C@H]21 [PRAVASTATIN] | > 10 µM | > 10 µM |  | > 30 µM |  |  |  |  |  |
| NC(=O)c1cnccn1 [PYRAZINAMIDE] | > 10 µM | > 30 µM |  | > 30 µM | > 30 µM | > 30 µM | > 30 µM | > 30 µM |  |
| CNC(=O)c1cc(Oc2ccc(NC(=O)Nc3ccc(Cl)c(C(F)(F)F)c3)cc2)ccn1 [SORAFENIB] | > 10 µM | > 30 µM | > 30 µM | > 30 µM |  | > 30 µM |  |  | > 30 µM |
| CC(C(=O)O)c1ccc(C(=O)c2cccs2)cc1 (centres undefined) [SUPROFEN] | > 10 µM | > 10 µM | > 10 µM |  |  | > 10 µM |  |  | > 10 µM |
| Cc1ccc(C(=O)c2cc(O)c(O)c([N+](=O)[O-])c2)cc1 [TOLCAPONE] | 14.6 µM | > 10 µM | > 10 µM |  |  | > 10 µM |  |  | > 10 µM |
| NC[C@H]1CC[C@H](C(=O)O)CC1 [TRANEXAMIC ACID] | > 30 µM | > 10 µM |  |  | > 10 µM | > 10 µM |  |  |  |
| CCCS(=O)(=O)Nc1ccc(F)c(C(=O)c2c[nH]c3ncc(-c4ccc(Cl)cc4)cc23)c1F [VEMURAFENIB] |  | > 30 µM | > 30 µM | > 30 µM | > 30 µM | > 30 µM |  |  | > 30 µM |
